From patent US10961245B2, “Substituted heterocycle fused gamma-carbolines for treatment of central nervous system disorders” (INTRA-CELLULAR THERAPIES, INC., priority 2016, dated 2021)

What was measured:
μ(MOP) (h) receptor = molecular target: T1, μ(MOP) (h) receptor (Homo sapiens, UniProt P35372); experiment: Cellular functional assay, μ (MOP) (h) antagonist effect (cAMP, HTRF); type: cell-based
T1 construct: expressed in transfected cells; host or cells: CHO cells
Description: Cellular and Nuclear Receptor Functional Assays are performed on the compounds of Formula II-B and according to the procedure of Wang, J. B. et al. (1994), FEBS Lett., 338:217-222. The compounds are tested at several concentrations to determine their IC50 or EC50.
Cellular agonist effects are calculated as percent of control response to a known reference agonist for each target and cellular antagonist effect is calculated as a percent inhibition of control reference agonist response for each target.
The following assay is performed to determine the effect of the Compound of Formula on the μ(MOP) (h) receptor: […]
The results are expressed as a percent of control agonist response: […]
and as a percent inhibition of control agonist response:
The EC50 values (concentration producing a half-maximal response) and IC50 values (concentration causing a half-maximal inhibition of the control agonist response) are determined by non-linear regression analysis of the concentration-response curves generated with mean replicate values using Hill equation curve fitting:
[formula] where Y=response, A=left asymptote of the curve, D=right asymptote of the curve, C=compound concentration, and C50=EC50 or IC50, and nH=slope factor. The analysis is performed using software developed in-house and validated by comparison with data generated by the commercial software SigmaPlot® 4.0 for Windows® (© 1997 by SPSS Inc.).
For the antagonists, the apparent dissociation constants (KB) are calculated using the modified Cheng Prusoff equation:
[formula] where A=concentration of reference agonist in the assay, and EC50A=EC50 value of the reference agonist.

Mu opiate receptor = Mu opiate receptor (Homo sapiens, UniProt P35372); experiment: Receptor binding Mu opiate receptor; details: read-out: Ki (nM) or maximum inhibition
Description: (§1) Receptor binding is determined for the Compounds of Formulas II-A and II-B using the tosylate salt of the compound of Formula A as a control. The following literature procedures are used, each of which reference is incorporated herein by reference in their entireties:
Mu opiate receptor: Wang, J. B. et al. (1994), FEBS Lett., 338:217-222.
(§2) In general, the results are expressed as a percent of control specific binding:
(§3) [formula] and as a percent inhibition of control specific binding: […]
(§4) The IC50 values (concentration causing a half-maximal inhibition of control specific binding) and Hill coefficients (nH) are determined by non-linear regression analysis of the competition curves generated with mean replicate values using Hill equation curve fitting:
(§5) [formula] where Y=specific binding, A=left asymptote of the curve, D=right asymptote of the curve, C=compound concentration, C50=IC50, and nH=slope factor. This analysis was performed using in-house software and validated by comparison with data generated by the commercial software SigmaPlot® 4.0 for Windows® (© 1997 by SPSS Inc.). The inhibition constants (Ki) were calculated using the Cheng Prusoff equation:
(§6) [formula] where L=concentration of radioligand in the assay, and KD=affinity of the radioligand for the receptor. A Scatchard plot is used to determine the KD.

D1 = D1 (Homo sapiens, UniProt P21728); experiment: Receptor binding D1; details: read-out: Ki (nM) or maximum inhibition
Description: as §1, §2, §3, §4, §5, §6

SERT = SERT (Homo sapiens, UniProt P31645); experiment: Receptor binding SERT; details: read-out: Ki (nM) or maximum inhibition
Description: as §1
SERT: Park, Y. M. et al. (1999), Anal. Biochem., 269:94-104.
as §2, §3, §4, §5, §6

5-HT2A = 5-HT2A (Homo sapiens, UniProt P28223); experiment: Receptor binding 5-HT2A; details: read-out: Ki (nM) or maximum inhibition
Description: as §1, §2, §3, §4, §5, §6

T1 sequence (P35372 whole entry): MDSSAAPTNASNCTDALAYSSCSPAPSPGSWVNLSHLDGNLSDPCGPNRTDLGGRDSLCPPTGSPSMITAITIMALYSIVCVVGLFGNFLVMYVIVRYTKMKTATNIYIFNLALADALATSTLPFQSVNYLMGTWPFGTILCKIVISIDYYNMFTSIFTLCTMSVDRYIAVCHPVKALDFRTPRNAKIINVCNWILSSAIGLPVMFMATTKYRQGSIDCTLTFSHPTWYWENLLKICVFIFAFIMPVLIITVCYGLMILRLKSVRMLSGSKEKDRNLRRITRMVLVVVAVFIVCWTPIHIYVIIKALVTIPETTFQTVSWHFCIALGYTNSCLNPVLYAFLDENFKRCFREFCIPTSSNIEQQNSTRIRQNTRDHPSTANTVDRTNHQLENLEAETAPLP
Chain of Mu opiate receptor (P35372 whole entry): as above
Chain of D1 (P21728 whole entry): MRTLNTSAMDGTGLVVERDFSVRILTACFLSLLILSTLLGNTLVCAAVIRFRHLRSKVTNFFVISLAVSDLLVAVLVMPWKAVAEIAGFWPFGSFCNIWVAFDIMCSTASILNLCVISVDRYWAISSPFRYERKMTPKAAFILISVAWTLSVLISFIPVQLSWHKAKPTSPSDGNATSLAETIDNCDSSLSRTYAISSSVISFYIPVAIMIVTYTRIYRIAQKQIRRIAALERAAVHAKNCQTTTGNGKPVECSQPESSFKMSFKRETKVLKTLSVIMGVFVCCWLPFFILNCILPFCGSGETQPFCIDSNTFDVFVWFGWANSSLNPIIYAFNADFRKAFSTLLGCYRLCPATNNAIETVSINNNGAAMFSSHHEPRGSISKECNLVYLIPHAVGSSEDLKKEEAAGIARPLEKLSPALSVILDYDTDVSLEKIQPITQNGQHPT
Chain of SERT (P31645 whole entry, species assumed): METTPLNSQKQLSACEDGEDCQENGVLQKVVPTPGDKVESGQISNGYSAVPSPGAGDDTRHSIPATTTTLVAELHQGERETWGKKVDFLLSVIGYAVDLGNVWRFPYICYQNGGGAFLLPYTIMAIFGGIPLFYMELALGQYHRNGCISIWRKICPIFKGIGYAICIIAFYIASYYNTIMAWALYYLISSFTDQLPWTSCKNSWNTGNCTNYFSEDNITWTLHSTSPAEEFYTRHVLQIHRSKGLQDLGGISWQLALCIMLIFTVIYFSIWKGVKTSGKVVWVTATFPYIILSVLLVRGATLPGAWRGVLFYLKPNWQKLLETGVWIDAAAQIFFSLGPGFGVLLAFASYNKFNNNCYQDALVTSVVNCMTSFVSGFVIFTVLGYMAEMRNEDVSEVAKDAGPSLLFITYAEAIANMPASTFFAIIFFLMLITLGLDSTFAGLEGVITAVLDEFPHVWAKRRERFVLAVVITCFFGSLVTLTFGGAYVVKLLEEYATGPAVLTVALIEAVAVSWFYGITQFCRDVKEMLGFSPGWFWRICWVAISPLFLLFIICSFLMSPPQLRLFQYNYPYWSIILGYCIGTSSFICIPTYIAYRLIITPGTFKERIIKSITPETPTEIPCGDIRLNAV
Chain of 5-HT2A (P28223 whole entry): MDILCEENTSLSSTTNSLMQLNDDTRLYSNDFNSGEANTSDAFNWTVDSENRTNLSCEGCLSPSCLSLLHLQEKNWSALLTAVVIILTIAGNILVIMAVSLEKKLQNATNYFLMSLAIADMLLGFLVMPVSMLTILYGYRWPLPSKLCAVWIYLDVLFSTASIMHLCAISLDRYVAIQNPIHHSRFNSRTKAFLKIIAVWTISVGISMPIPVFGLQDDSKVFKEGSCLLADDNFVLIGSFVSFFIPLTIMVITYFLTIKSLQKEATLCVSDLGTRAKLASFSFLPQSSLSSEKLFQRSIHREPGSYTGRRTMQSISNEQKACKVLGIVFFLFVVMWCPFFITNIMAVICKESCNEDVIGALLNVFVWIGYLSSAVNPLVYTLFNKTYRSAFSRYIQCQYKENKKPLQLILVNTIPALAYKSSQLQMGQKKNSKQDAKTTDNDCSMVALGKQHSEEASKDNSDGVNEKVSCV

Row | Structure (SMILES) | IC50 (μ(MOP) (h) receptor; human recombinant CHO cells, DAMGO (20 nM) stimulus, cAMP) [nM] | Kb (μ(MOP) (h) receptor; modified Cheng Prusoff equation, DAMGO (20 nM), read-out: μ(MOP) (h) (antagonist effect) KB (apparent dissociation constant)) [nM] | Ki (Mu opiate receptor) [nM] | Ki (D1) [nM] | IC50 (μ(MOP) (h) receptor; unit inferred, highest concentration tested) [nM] | inhibition at 1 µM (SERT) [%] | Ki (5-HT2A) [nM]
1 | CN1C(=O)CN2c3c(cccc31)[C@@H]1CN(CCCC(=O)c3ccncc3)CC[C@@H]12 [Formula II-B] | 1300 | 140 | – | – | – | – | –
2 | O=C1CN2c3c(cccc3[C@@H]3CN(CCCC(=O)c4ccncc4)CC[C@@H]32)N1 [Formula II-C] | – | – | 400 | 470 | > 10000 | 40 | 37
